Values of other authors in patent US20110159118A1, “Screening Method (Metabolite Grid) for Therapeutic Extracts and Molecules for Diabetes” (priority 2000, published 2011).

Assays:
hyperglycemic rats = conditions: effect comparable to metformin
[1] = tested on: streptozotocin-diabetic mice; conditions: doses of 3.4-13.4 mg/kg, 6 h after the administration

Oc1cc(O)c2c(c1)O[C@H](c1ccc(O)c(O)c1)[C@H](O)C2 [(−)-Epicatechin, (−)-epicatechin]
blood glucose levels, control versus treated rats (alloxan diabetic rats; 30 mg/kg, i.p., twice daily for 3 days, begun 92 hr after alloxan): no significant difference | hyperglycemia (alloxan diabetic rats; given before or within 24 hr after the dose of alloxan): reverse hyperglycemia

COc1cc(O)cc2c1C(=O)C(O)(Cc1ccc(O)cc1)O2 (stereo not shown) [Marsupsin, marsupsin]
blood glucose level (hyperglycemic rats): significantly lowered

gymnemic acid IV [Gymnemic acids]
reduced the blood glucose levels [1]: 13.5-60.0%
